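Following 48 hours of exposure in 96-well plates, responses at five concentrations were used to interpolate endpoints linearly. GI50 is the concentration that inhibits growth by half. TGI: total growth inhibition.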
How the values were obtained:
Assay in all cases: NCI tumour cell line growth inhibition, 48 h
HCC-2998 colon = system: HCC-2998 colon
SNB-75 CNS = system: SNB-75 CNS
OVCAR-8 ovarian = system: OVCAR-8 ovarian
SF-539 CNS = system: SF-539 CNS
LOX IMVI melanoma = system: LOX IMVI melanoma
SW-620 colon = system: SW-620 colon
OVCAR-5 ovarian = system: OVCAR-5 ovarian
K-562 leukemia = system: K-562 leukemia
PC-3 prostate = system: PC-3 prostate
NCI-H522 lung = system: NCI-H522 lung

| Compound | TGI (HCC-2998 colon) | TGI (SNB-75 CNS) | TGI (OVCAR-8 ovarian) | TGI (SF-539 CNS) | TGI (LOX IMVI melanoma) | TGI (SW-620 colon) | TGI (OVCAR-5 ovarian) | TGI (K-562 leukemia) | TGI (PC-3 prostate) | TGI (NCI-H522 lung) | GI50 (SNB-75 CNS) | GI50 (K-562 leukemia) | GI50 (OVCAR-8 ovarian) | GI50 (PC-3 prostate) | GI50 (SW-620 colon) | GI50 (NCI-H522 lung) | GI50 (OVCAR-5 ovarian) |
| --- | --- | --- | --- | --- | --- | --- | --- | --- | --- | --- | --- | --- | --- | --- | --- | --- | --- |
| CCCCCCCCCCCCCCCCCCNC(=S)/N=C/c1c(O)c2ccccc2[nH]c1=O | 31.1 µM | 28 µM | 29.6 µM | 43.1 µM | 32.2 µM | 42.4 µM | 31.2 µM | – | – | – | – | – | – | – | – | – | – |
| O=C1CC(=O)NC(=NN2C(=O)CSC2C(=O)c2ccco2)N1 (stereo not drawn) | > 100 µM | > 100 µM | > 100 µM | > 100 µM | – | > 100 µM | > 100 µM | > 100 µM | > 100 µM | > 100 µM | – | – | – | – | – | – | – |
| O=P(Nc1ccccc1)(Oc1ccccc1)N(CCCl)CCCl (stereo not drawn) | > 100 µM | > 100 µM | > 100 µM | > 100 µM | – | > 100 µM | > 100 µM | > 100 µM | – | 28.8 µM | – | – | – | – | – | – | – |
| O=C(Nc1ccccc1Cl)c1ccc([N+](=O)[O-])cc1 | > 100 µM | 47.5 µM | > 100 µM | > 100 µM | > 100 µM | > 100 µM | – | > 100 µM | – | > 100 µM | – | – | – | – | – | – | – |
| COc1cc(C2C3=C(CCCC3=O)N(c3ccc(C)cc3)C3=C2C(=O)CCC3)c([N+](=O)[O-])cc1OC | > 100 µM | > 100 µM | – | > 100 µM | > 100 µM | > 100 µM | > 100 µM | > 100 µM | > 100 µM | – | – | – | – | – | – | – | – |
| CCn1c2c(c3ccccc31)[C@@H](c1ccc(Cl)cc1)CC1C(=O)N(c3ccccc3)C(=O)C21 (stereo partly drawn) | > 100 µM | > 100 µM | > 100 µM | 97.1 µM | > 100 µM | > 100 µM | > 100 µM | > 100 µM | – | > 100 µM | – | – | – | – | – | – | – |
| O=C(c1cccnc1)N1N=C(c2ccccc2)CC1(O)c1cc(F)c(Cl)cc1Cl (stereo not drawn) | – | 52.9 µM | > 100 µM | 32.3 µM | 30 µM | > 100 µM | > 100 µM | 80.4 µM | 72.2 µM | > 100 µM | – | – | – | – | – | – | – |
| CN1CCc2c(sc3ncn(Nc4ccc(Cl)cc4)c(=N)c23)C1 | – | > 100 µM | > 100 µM | > 100 µM | > 100 µM | > 100 µM | > 100 µM | > 100 µM | > 100 µM | > 100 µM | – | – | – | – | – | – | – |
| C=CC(C)C1(CCCOCc2ccccc2)C(=S)N2CCC3(CC24CCCC14)OCCO3 (stereo not drawn) | > 100 µM | 5.82 µM | > 100 µM | – | > 100 µM | > 100 µM | > 100 µM | > 100 µM | – | 64.4 µM | – | – | – | – | – | – | – |
| OC12c3ccccc3C1CCCCCCCCCC21OCCO1 (stereo not drawn) | > 100 µM | > 100 µM | > 100 µM | > 100 µM | > 100 µM | > 100 µM | > 100 µM | > 100 µM | – | > 100 µM | – | – | – | – | – | – | – |
| C=CC(=O)N1C/C(=C\c2ccc([N+](=O)[O-])cc2)C(=O)/C(=C/c2ccc([N+](=O)[O-])cc2)C1 | 1.21 µM | 1.16 µM | 0.727 µM | 0.151 µM | 0.18 µM | 1.96 µM | 1.18 µM | – | 0.361 µM | – | – | – | – | – | – | – | – |
| COC(=O)CNC(=O)CCC(C)[C@H]1CCC2C3C(C[C@H](OC(C)=O)[C@@]21C)[C@@]1(C)CCC2(C[C@H]1C[C@H]3OC(C)=O)OOC1(CC[C@]3(C)C4C[C@H](OC(C)=O)[C@@]5(C)C(CC[C@@H]5C(C)CCC(=O)NCC(=O)OC)C4[C@H](OC(C)=O)C[C@@H]3C1)OO2 (stereo partly drawn) | 1.86 µM | 5.17 µM | – | 1.8 µM | – | > 50 µM | 9.96 µM | 4.63 µM | 8.69 µM | 3.19 µM | – | – | – | – | – | – | – |
| CC(=O)O[C@H]1C(=O)[C@@]2(C)[C@H]([C@H](OC(=O)c3ccccc3)[C@]3(O)C[C@H](OC(=O)[C@H](O)[C@@H](NC(=O)c4ccccc4)c4cccc(N(C)C)c4)C(C)=C1C3(C)C)[C@]1(OC(C)=O)CO[C@@H]1C[C@@H]2O | – | > 36.1 µM | > 27.4 µM | 1.08 µM | > 75 µM | > 75 µM | > 15.8 µM | > 75 µM | 12.4 µM | 3.69 µM | – | – | – | – | – | – | – |
| Cc1cc2n[n+]3[n-]cc(-c4ccccc4)n3c2cc1[N+](=O)[O-] | – | > 100 µM | – | > 100 µM | > 100 µM | > 100 µM | > 100 µM | > 100 µM | > 100 µM | > 100 µM | – | – | – | – | – | – | – |
| C=CCN1/C(=C2\SC(=S)N(c3ccc(C)cc3)C2=O)Sc2c1ncn(C)c2=O | > 100 µM | > 100 µM | > 100 µM | > 100 µM | > 100 µM | > 100 µM | > 100 µM | > 100 µM | – | > 100 µM | – | – | – | – | – | – | – |
| CCCCCCCCCCCCCC[n+]1ccc(C(N)=O)cc1 | – | 4.17 µM | 4.48 µM | – | – | 11.2 µM | 4.12 µM | > 100 µM | 2.88 µM | 4.68 µM | 1.7 µM | 2.31 µM | 1.68 µM | 0.703 µM | 2.31 µM | 1.61 µM | 1.2 µM |
| CCOC(=O)C(Cc1ccccc1)NC(=O)c1[nH]cnc1/N=N/N(C)C (stereo not drawn) | > 100 µM | > 100 µM | > 100 µM | > 100 µM | > 100 µM | > 100 µM | > 100 µM | > 100 µM | – | > 100 µM | – | – | – | – | – | – | – |
| COC(=O)C1=C(C(=O)OC)C(N(C)C)C(C(=O)OC)=C(C(=O)OC)S1 | > 100 µM | > 100 µM | > 100 µM | – | > 100 µM | > 100 µM | > 100 µM | > 100 µM | > 100 µM | – | – | – | – | – | – | – | – |
| COC(=O)[C@]1(c2ccc(N(C)C)cc2OC)C[C@@H]2CCCN(CCc3c1[nH]c1ccccc31)C2 | 29.8 µM | 22.3 µM | 57.9 µM | 36.8 µM | > 62.3 µM | > 100 µM | > 100 µM | 37.7 µM | – | 21.8 µM | – | – | – | – | – | – | – |
| C#C[C@@]1(O)CCCC2=CC3(CC[C@]21C)SCCS3 | > 100 µM | – | > 100 µM | > 100 µM | > 100 µM | > 100 µM | > 100 µM | > 100 µM | > 100 µM | > 100 µM | – | – | – | – | – | – | – |
| CNC(=O)SCC(NC(=O)CCC(N)C(=O)O)C(=O)NCC(=O)O (stereo not drawn) | > 100 µM | > 100 µM | > 100 µM | > 100 µM | > 100 µM | > 100 µM | > 100 µM | > 100 µM | – | > 100 µM | – | – | – | – | – | – | – |
| N/C(=N\Nc1ccc(Cl)cc1)c1cnccn1 | 79.1 µM | > 100 µM | > 100 µM | – | > 100 µM | > 100 µM | > 100 µM | > 100 µM | > 100 µM | > 100 µM | – | – | – | – | – | – | – |

Source: PubChem BioAssay (NCI)
